Measured values: PMC7313537 (PLoS ONE, 2020)

Key:
[1] = Tolerability in xenograft studies; type: in vivo
[2] = test system: serum inorganic phosphate; experiment: Serum phosphate pharmacodynamic study; type: in vivo, C57BL/6 mice; conditions: single oral dose
Protocol: Female C57BL/6 mice, 5–8 weeks of age, were obtained from Charles River Laboratories. […] Twenty-four hours after dosing, mice were anesthetized under isoflurane. Approximately 200 μL of whole blood was collected by capillary retro-orbital sinus sampling into lithium heparin collection tubes (RAM Scientific, Yonkers, NY). Blood was maintained at 4°C and transported for analysis to DuPont Haskell Global Centers for Health and Environmental Science (Newark, DE). Each sample was analyzed for levels of inorganic phosphate within 4 hours of receipt. Serum clinical chemistry parameters were determined using an Olympus® AU640 clinical chemistry analyzer (Beckman Coulter, Brea, CA). Both phosphate and calcium are manufacturer-supplied reagents and methods.

PAK3 = biological target: T1, PAK3 (Homo sapiens, UniProt O75914); experiment: Broader kinase panel (PerkinElmer); type: biochemical; conditions: 100 nM; read-out: Average Percent Inhibition
T1 construct: purchased In-house HTRF panel (56 kinases) and PerkinElmer (161-kinase panel)
Description: (§1) […]. […] […].

FLT4 = biological target: T2, FLT4 (Homo sapiens, UniProt P35916); experiment: Broader kinase panel (PerkinElmer); type: biochemical; conditions: 100 nM; read-out: Average Percent Inhibition
T2 construct: purchased In-house HTRF panel (56 kinases) and PerkinElmer (161-kinase panel)
Description: as §1

PKC-gamma = biological target: T3, PKC-gamma (Homo sapiens, UniProt P05129); experiment: Broader kinase panel (PerkinElmer); type: biochemical; conditions: 100 nM; read-out: Average Percent Inhibition
T3 construct: purchased In-house HTRF panel (56 kinases) and PerkinElmer (161-kinase panel)
Description: as §1

EPHA3 = biological target: T4, EPHA3 (Homo sapiens, UniProt P29320); experiment: Broader kinase panel (PerkinElmer); type: biochemical; conditions: 100 nM; read-out: Average Percent Inhibition
T4 construct: purchased In-house HTRF panel (56 kinases) and PerkinElmer (161-kinase panel)
Description: as §1

IRAK4 = biological target: T5, IRAK4 (Homo sapiens, UniProt Q9NWZ3); experiment: Broader kinase panel (PerkinElmer); type: biochemical; conditions: 100 nM; read-out: Average Percent Inhibition
T5 construct: purchased In-house HTRF panel (56 kinases) and PerkinElmer (161-kinase panel)
Description: as §1

CK1-gamma 1 = biological target: T6, CK1-gamma 1 (Homo sapiens, UniProt Q9HCP0); experiment: Broader kinase panel (PerkinElmer); type: biochemical; conditions: 100 nM; read-out: Average Percent Inhibition
T6 construct: purchased In-house HTRF panel (56 kinases) and PerkinElmer (161-kinase panel)
Description: as §1

PASK = biological target: T7, PASK (Homo sapiens, UniProt Q96RG2); experiment: Broader kinase panel (PerkinElmer); type: biochemical; conditions: 100 nM; read-out: Average Percent Inhibition
T7 construct: purchased In-house HTRF panel (56 kinases) and PerkinElmer (161-kinase panel)
Description: as §1

TSSK2 = biological target: T8, TSSK2 (Homo sapiens, UniProt Q96PF2); experiment: Broader kinase panel (PerkinElmer); type: biochemical; conditions: 100 nM; read-out: Average Percent Inhibition
T8 construct: purchased In-house HTRF panel (56 kinases) and PerkinElmer (161-kinase panel)
Description: as §1

Ca MK1a = biological target: T9, Ca MK1a (Homo sapiens, UniProt Q14012); experiment: Broader kinase panel (PerkinElmer); type: biochemical; conditions: 100 nM; read-out: Average Percent Inhibition
T9 construct: purchased In-house HTRF panel (56 kinases) and PerkinElmer (161-kinase panel)
Description: as §1

CAMK4 = biological target: T10, CAMK4 (Homo sapiens, UniProt Q16566); experiment: Broader kinase panel (PerkinElmer); type: biochemical; conditions: 100 nM; read-out: Average Percent Inhibition
T10 construct: purchased In-house HTRF panel (56 kinases) and PerkinElmer (161-kinase panel)
Description: as §1

EPHA5 = biological target: T11, EPHA5 (Homo sapiens, UniProt P54756); experiment: Broader kinase panel (PerkinElmer); type: biochemical; conditions: 100 nM; read-out: Average Percent Inhibition
T11 construct: purchased In-house HTRF panel (56 kinases) and PerkinElmer (161-kinase panel)
Description: as §1

BMX = biological target: T12, BMX (Homo sapiens, UniProt P51813); experiment: Broader kinase panel (PerkinElmer); type: biochemical; conditions: 100 nM; read-out: Average Percent Inhibition
T12 construct: purchased In-house HTRF panel (56 kinases) and PerkinElmer (161-kinase panel)
Description: as §1

p38-beta 2 = biological target: T13, p38-beta 2 (Homo sapiens, UniProt Q15759); experiment: Broader kinase panel (PerkinElmer); type: biochemical; conditions: 100 nM; read-out: Average Percent Inhibition
T13 construct: purchased In-house HTRF panel (56 kinases) and PerkinElmer (161-kinase panel)
Description: as §1

PAK5 (PAK7) = biological target: T14, PAK5 (PAK7) (Homo sapiens, UniProt Q9P286); experiment: Broader kinase panel (PerkinElmer); type: biochemical; conditions: 100 nM; read-out: Average Percent Inhibition
T14 construct: purchased In-house HTRF panel (56 kinases) and PerkinElmer (161-kinase panel)
Description: as §1

PDGFRA (D842V) = biological target: T15, PDGFRA (D842V) (Homo sapiens, UniProt P16234, D842V); experiment: Broader kinase panel (PerkinElmer); type: biochemical; conditions: 100 nM; read-out: Average Percent Inhibition
T15 construct: purchased In-house HTRF panel (56 kinases) and PerkinElmer (161-kinase panel)
Description: as §1

[3] = biological target: T16, AMPK-alpha2/beta1/gamma 1 (Homo sapiens, UniProt P54646); experiment: Broader kinase panel (PerkinElmer); type: biochemical; conditions: 100 nM; read-out: Average Percent Inhibition
T16 construct: purchased In-house HTRF panel (56 kinases) and PerkinElmer (161-kinase panel)
Description: as §1

PIM1 = biological target: T17, PIM1 (Homo sapiens, UniProt P11309); experiment: Broader kinase panel (PerkinElmer); type: biochemical; conditions: 100 nM; read-out: Average Percent Inhibition
T17 construct: purchased In-house HTRF panel (56 kinases) and PerkinElmer (161-kinase panel)
Description: as §1

c-TAK1 = biological target: T18, c-TAK1 (Homo sapiens, UniProt P27448); experiment: Broader kinase panel (PerkinElmer); type: biochemical; conditions: 100 nM; read-out: Average Percent Inhibition
T18 construct: purchased In-house HTRF panel (56 kinases) and PerkinElmer (161-kinase panel)
Description: as §1

Flt3(D835Y) = biological target: T19, Flt3(D835Y) (Homo sapiens, UniProt P36888, D835Y); experiment: Broader kinase panel (PerkinElmer); type: biochemical; conditions: 100 nM; read-out: Average Percent Inhibition
T19 construct: purchased In-house HTRF panel (56 kinases) and PerkinElmer (161-kinase panel)
Description: as §1

PDGFR BETA = biological target: T20, PDGFR BETA (Homo sapiens, UniProt P09619); experiment: Broader kinase panel (PerkinElmer); type: biochemical; conditions: 100 nM; read-out: Average Percent Inhibition
T20 construct: purchased In-house HTRF panel (56 kinases) and PerkinElmer (161-kinase panel)
Description: as §1

AurA = biological target: T21, AurA (Homo sapiens, UniProt O14965); experiment: Broader kinase panel (PerkinElmer); type: biochemical; conditions: 100 nM; read-out: Average Percent Inhibition
T21 construct: purchased In-house HTRF panel (56 kinases) and PerkinElmer (161-kinase panel)
Description: as §1

BRSK1 = biological target: T22, BRSK1 (Homo sapiens, UniProt Q8TDC3); experiment: Broader kinase panel (PerkinElmer); type: biochemical; conditions: 100 nM; read-out: Average Percent Inhibition
T22 construct: purchased In-house HTRF panel (56 kinases) and PerkinElmer (161-kinase panel)
Description: as §1

PIM3 = biological target: T23, PIM3 (Homo sapiens, UniProt Q86V86); experiment: Broader kinase panel (PerkinElmer); type: biochemical; conditions: 100 nM; read-out: Average Percent Inhibition
T23 construct: purchased In-house HTRF panel (56 kinases) and PerkinElmer (161-kinase panel)
Description: as §1

BTK = BTK (Homo sapiens, UniProt Q06187); experiment: Broader kinase panel (PerkinElmer); type: biochemical; conditions: 100 nM; read-out: Average Percent Inhibition
Description: as §1

ITK = biological target: T24, ITK (Homo sapiens, UniProt Q08881); experiment: Broader kinase panel (PerkinElmer); type: biochemical; conditions: 100 nM; read-out: Average Percent Inhibition
T24 construct: purchased In-house HTRF panel (56 kinases) and PerkinElmer (161-kinase panel)
Description: as §1

IKBKE (IKK epsilon) = biological target: T25, IKBKE (IKK epsilon) (Homo sapiens, UniProt Q14164); experiment: Broader kinase panel (PerkinElmer); type: biochemical; conditions: 100 nM; read-out: Average Percent Inhibition
T25 construct: purchased In-house HTRF panel (56 kinases) and PerkinElmer (161-kinase panel)
Description: as §1

Pharmacokinetic analyses = type: in vivo, Sprague Dawley rats; conditions: male rat
Protocol: The i.v. formulation in rats was 5% dimethylacetamide (DMAC) and 25% sulfobutyl ether β-cyclodextrin in acidified saline (pH 3). The i.v. formulation in dogs and monkeys was 5% DMAC and 20% sulfobutyl ether β-cyclodextrin in saline. The oral formulation in all species was 5% DMAC in 0.5% methylcellulose aqueous solution. For rats, blood samples were collected at predose, 5 (i.v. dosing only), 15, and 30 minutes, and 1, 2, 4, 6, 8, and 24 hours. For dogs, blood samples were collected at predose, 2.5 and 5 (i.v. dosing only), 15, and 30 minutes, and 1, 2, 3, 4, 6, 8, 12, and 24 hours postdose. For monkeys, blood samples were collected at predose, 5 and 10 (i.v. dosing only), 15, and 30 minutes, and 1, 2, 3, 4, 6, 8, 12, 16, and 24 hours postdose. Collected blood samples were processed to extract plasma by centrifugation and stored at −20 °C until analysis.
The plasma was protein precipitated and the diluted supernatant was analyzed using LC/MS/MS. A standard curve was prepared in plasma from 1 to 5,000 nM and processed in the same manner as the samples. The pharmacokinetic parameters were determined using WinNonLin 6.3.

PHKG2 = biological target: T26, PHKG2 (Homo sapiens, UniProt P15735); experiment: Enzyme selectivity panel; type: biochemical; conditions: 1 mM ATP
T26 construct: purchased In-house HTRF panel (56 kinases) and PerkinElmer (161-kinase panel)
Protocol: The kinase assays were carried out at room temperature in HEPES 50 mM, pH 7.0, NaN3 0.02%, BSA 0.01%, Orthovanadate 0.1 mM, DTT 1 mM, MgCl2 10 mM in a final volume of 10 µL. Test compounds were transferred to the plate wells by ECHO liquid handler (Labcyte, San Jose, CA) with 0.5% dimethyl sulfoxide (DMSO) in the final assay. Peptide/kinase mixtures were diluted in the appropriate enzymatic buffer and 5µL of the mixture was added to a 384-well small volume black plate. Reactions were initiated by the addition of 5 µL ATP in reaction buffer, the final reaction mixture consisted of 500 nM peptide substrate, 1 mM ATP, and appropriate amount of specific kinase. […] The plates were then sealed and centrifuged at 1800 rpm for 2 minutes. […] Half maximal inhibitory concentration (IC50) determination was performed by fitting the curve of percent control activity versus the log of the compound concentration using the GraphPad Prism 6.0 software.

[4] = Sprague Dawley, plasma, oral 2 mg/kg

T7 sequence (Q96RG2 whole entry): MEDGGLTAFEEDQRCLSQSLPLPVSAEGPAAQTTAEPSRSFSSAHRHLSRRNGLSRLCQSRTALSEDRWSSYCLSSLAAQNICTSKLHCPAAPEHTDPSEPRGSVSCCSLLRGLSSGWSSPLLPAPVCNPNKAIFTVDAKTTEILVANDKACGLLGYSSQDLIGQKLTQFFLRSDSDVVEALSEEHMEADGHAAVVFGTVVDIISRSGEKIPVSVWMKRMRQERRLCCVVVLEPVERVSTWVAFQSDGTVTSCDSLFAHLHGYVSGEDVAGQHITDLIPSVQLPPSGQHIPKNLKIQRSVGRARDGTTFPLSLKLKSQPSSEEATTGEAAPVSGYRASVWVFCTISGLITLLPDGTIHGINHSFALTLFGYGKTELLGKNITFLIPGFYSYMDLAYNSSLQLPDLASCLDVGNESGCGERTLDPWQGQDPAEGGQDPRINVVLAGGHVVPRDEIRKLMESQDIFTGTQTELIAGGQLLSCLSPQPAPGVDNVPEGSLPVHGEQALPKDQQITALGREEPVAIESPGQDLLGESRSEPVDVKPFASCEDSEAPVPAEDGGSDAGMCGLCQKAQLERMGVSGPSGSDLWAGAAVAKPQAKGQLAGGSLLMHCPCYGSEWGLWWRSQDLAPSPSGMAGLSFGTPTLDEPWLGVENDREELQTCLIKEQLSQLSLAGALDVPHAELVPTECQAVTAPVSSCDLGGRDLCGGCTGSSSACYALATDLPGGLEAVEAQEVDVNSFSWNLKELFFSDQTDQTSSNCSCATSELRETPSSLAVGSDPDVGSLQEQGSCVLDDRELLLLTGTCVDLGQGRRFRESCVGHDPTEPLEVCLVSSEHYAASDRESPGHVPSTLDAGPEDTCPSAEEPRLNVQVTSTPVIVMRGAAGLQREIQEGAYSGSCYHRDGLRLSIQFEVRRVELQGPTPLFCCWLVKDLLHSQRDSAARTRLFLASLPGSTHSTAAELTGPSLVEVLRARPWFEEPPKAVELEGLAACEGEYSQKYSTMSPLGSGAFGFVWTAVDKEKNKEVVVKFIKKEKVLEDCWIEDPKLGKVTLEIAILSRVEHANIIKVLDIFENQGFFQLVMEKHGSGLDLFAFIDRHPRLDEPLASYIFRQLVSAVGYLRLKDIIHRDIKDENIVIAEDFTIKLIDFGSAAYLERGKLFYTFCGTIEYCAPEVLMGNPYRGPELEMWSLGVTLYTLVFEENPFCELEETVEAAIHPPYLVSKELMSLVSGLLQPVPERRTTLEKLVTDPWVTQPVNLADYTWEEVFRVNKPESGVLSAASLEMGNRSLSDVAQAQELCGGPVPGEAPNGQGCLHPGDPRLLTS
T12 sequence (P51813 whole entry): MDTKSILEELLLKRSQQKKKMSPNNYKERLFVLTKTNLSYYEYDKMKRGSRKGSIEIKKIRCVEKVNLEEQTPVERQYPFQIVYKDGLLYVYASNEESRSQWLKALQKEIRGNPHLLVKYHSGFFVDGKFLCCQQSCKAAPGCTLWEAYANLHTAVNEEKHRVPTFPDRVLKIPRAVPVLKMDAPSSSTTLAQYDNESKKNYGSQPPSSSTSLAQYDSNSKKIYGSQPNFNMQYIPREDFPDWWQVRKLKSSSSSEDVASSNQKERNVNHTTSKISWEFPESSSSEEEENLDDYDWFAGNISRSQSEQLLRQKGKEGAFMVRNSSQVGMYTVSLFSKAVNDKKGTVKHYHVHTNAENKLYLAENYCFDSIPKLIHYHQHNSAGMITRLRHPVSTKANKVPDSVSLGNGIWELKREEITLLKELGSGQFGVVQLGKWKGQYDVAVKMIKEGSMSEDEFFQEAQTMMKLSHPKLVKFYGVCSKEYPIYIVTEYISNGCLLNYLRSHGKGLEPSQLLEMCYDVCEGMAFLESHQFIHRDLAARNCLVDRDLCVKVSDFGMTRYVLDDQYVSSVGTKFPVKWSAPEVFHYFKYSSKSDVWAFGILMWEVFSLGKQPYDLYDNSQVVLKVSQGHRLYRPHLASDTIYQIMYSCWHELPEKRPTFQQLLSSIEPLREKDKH
T9 sequence (Q14012 whole entry): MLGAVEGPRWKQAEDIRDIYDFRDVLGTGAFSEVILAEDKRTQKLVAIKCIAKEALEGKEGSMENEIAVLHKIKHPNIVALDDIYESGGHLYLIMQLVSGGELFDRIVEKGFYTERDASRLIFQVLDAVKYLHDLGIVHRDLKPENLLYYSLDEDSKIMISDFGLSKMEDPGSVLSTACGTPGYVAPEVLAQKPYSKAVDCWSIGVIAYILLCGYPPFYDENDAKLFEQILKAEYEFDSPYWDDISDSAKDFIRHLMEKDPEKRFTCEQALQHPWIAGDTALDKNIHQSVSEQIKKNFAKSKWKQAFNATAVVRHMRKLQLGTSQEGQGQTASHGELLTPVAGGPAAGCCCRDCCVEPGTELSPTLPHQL
T26 sequence (P15735 whole entry, species assumed): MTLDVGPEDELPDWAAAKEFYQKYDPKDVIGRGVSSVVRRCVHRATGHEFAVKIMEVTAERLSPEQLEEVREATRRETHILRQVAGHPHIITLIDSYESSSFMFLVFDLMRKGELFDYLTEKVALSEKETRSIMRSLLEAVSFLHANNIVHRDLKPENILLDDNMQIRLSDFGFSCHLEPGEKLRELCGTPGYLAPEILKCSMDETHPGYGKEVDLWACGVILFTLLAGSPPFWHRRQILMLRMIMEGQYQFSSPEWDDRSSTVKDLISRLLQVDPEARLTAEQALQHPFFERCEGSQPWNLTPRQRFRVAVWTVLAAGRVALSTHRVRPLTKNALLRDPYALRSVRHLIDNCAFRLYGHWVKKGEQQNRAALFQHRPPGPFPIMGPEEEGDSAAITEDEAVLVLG
T21 sequence (O14965 whole entry): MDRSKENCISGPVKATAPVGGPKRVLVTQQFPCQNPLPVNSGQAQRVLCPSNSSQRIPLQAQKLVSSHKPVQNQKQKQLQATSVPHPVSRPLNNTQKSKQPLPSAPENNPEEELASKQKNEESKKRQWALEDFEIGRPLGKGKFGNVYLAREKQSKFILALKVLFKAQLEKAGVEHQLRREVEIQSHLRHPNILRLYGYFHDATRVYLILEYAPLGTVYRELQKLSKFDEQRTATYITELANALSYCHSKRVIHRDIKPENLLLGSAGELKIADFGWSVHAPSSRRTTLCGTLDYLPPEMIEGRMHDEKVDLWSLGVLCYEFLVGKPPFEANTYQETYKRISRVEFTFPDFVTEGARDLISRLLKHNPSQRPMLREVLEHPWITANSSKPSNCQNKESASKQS
T20 sequence (P09619 33-1106, species assumed): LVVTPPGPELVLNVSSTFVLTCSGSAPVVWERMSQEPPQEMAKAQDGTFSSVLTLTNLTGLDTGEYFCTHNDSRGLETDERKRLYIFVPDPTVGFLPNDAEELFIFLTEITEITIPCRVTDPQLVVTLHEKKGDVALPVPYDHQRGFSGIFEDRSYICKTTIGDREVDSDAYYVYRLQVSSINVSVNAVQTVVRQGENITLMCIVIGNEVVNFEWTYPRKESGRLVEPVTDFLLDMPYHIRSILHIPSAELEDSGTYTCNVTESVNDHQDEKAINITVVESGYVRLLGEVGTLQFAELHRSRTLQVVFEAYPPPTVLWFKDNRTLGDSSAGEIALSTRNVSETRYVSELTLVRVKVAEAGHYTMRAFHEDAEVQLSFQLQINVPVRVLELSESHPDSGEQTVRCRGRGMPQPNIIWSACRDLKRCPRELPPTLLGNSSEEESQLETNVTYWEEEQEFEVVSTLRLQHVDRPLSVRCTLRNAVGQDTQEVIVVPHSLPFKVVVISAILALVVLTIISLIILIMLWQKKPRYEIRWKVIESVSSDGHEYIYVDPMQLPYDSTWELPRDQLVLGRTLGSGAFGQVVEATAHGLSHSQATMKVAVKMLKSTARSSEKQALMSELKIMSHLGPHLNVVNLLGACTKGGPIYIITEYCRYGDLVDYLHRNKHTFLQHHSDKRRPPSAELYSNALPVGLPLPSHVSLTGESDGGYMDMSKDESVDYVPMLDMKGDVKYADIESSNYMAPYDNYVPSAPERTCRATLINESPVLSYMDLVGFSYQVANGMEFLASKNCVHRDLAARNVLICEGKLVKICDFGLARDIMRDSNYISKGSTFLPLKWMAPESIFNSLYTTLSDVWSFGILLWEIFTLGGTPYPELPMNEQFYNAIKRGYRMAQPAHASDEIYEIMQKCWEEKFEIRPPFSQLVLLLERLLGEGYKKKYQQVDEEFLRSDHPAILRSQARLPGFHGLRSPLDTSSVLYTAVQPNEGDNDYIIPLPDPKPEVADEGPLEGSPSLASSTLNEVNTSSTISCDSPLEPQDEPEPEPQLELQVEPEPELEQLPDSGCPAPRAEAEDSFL
T22 sequence (Q8TDC3 whole entry): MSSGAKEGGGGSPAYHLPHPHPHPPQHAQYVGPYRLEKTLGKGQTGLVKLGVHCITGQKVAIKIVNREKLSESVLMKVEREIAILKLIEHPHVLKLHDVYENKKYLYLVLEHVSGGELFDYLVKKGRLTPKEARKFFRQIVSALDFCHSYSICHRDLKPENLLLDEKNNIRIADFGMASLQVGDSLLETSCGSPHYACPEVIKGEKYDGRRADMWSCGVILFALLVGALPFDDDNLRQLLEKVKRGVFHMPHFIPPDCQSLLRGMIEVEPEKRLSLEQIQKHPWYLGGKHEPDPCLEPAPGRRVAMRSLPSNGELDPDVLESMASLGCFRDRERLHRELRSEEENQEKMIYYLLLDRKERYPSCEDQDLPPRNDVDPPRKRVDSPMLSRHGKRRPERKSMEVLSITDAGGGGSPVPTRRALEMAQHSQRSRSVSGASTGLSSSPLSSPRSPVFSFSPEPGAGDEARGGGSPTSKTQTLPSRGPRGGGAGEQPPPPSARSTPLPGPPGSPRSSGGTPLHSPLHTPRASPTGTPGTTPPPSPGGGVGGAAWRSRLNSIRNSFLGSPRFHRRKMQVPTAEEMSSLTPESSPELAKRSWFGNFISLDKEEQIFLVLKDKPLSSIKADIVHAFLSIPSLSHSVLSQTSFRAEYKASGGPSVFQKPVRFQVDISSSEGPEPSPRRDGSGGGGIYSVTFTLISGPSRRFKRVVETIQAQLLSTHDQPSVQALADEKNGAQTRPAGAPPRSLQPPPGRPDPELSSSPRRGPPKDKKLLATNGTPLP

CCN1C(=O)N(c2c(F)c(OC)cc(OC)c2F)Cc2cnc3[nH]c(CN4CCOCC4)cc3c21 [INCB054828, pemigatinib]
overt toxicities ([1]; 0.3–1 mg/kg once daily, longer than 1 month): no overt toxicities were observed
tolerability (body weight changes, clinical signs) ([1]; doses up to and including 1 mg/kg, up to 42 days): well tolerated
average half maximal effective dose for phosphate induction ([2]; 2 independent experiments): 2.9 mg/kg
serum phosphorus ([2]; 24 hours after dosing): dose-dependent increase
inhibition at 0.1 µM (PAK3): -2%
inhibition at 0.1 µM (FLT4): 38%
inhibition at 0.1 µM (PKC-gamma): 7%
inhibition at 0.1 µM (EPHA3): 0%
inhibition at 0.1 µM (IRAK4): 0%
inhibition at 0.1 µM (CK1-gamma 1): -3%
inhibition at 0.1 µM (PASK): -7%
inhibition at 0.1 µM (TSSK2): -3%
inhibition at 0.1 µM (Ca MK1a): 3%
inhibition at 0.1 µM (CAMK4): -1%
inhibition at 0.1 µM (EPHA5): 2%
inhibition at 0.1 µM (BMX): 3%
inhibition at 0.1 µM (p38-beta 2): 2%
inhibition at 0.1 µM (PAK5 (PAK7)): 6%
inhibition at 0.1 µM (PDGFRA (D842V)): 18%
inhibition at 0.1 µM [3]: 7%
inhibition at 0.1 µM (PIM1): -6%
inhibition at 0.1 µM (c-TAK1): 2%
inhibition at 0.1 µM (Flt3(D835Y)): 1%
inhibition at 0.1 µM (PDGFR BETA): 6%
inhibition at 0.1 µM (AurA): 6%
inhibition at 0.1 µM (BRSK1): -4%
inhibition at 0.1 µM (PIM3): -4%
inhibition at 0.1 µM (BTK): -3%
inhibition at 0.1 µM (ITK): 2%
inhibition at 0.1 µM (IKBKE (IKK epsilon)): -2%
clearance (Pharmacokinetic analyses; Sprague Dawley, plasma, intravenous 1 mg/kg): 17.2 mL/min/kg
Vd (Pharmacokinetic analyses; Sprague Dawley, plasma, intravenous 1 mg/kg, read-out: Vss): 1.85 L/kg
half-life (Pharmacokinetic analyses; Sprague Dawley, plasma, intravenous 1 mg/kg, read-out: t½ (converted)): 4 h
Cmax (Pharmacokinetic analyses; [4]): 2260 nM
bioavailability (Pharmacokinetic analyses; [4]): > 100%
Hepatic ER (Pharmacokinetic analyses; intravenous 1 mg/kg, % of hepatic blood flow): 31%
%F (Pharmacokinetic analyses; oral 2 mg/kg): complete
AUC (Pharmacokinetic analyses; oral 2 mg/kg): 7.67 µM·h
IC50 (PHKG2): > 10 µM
